Data on 3 substances can be found in patent publication US20100255015A1 (priority 2007, published 2010).

Where two headings read alike, the source gives them in different places.

The test system of one experiment is Z5B71 T cell clone. As to the kind of experiment: T cell activation assay: stimulation of the Z5B71 T cell clone, IFN-γ ELISA. The format is cell-based, human. The settings on record: antigen-loaded APCs, 36 hr. For orientation: In an ELISA, binding on a coated surface is turned into a signal by an enzyme label.
In experiment [1] the test system is CD1b-restricted T cell clones Z5B71, Z4B27, Z5B11. Nature of the experiment: DCs pulsed with heat-killed or infected with living M. tuberculosis, recognition by CD1b-restricted T cell clones. The class given is cell-based, human. As to the method:
Pulsing and infection of DCs with M. tuberculosis. M. tuberculosis was killed at 80° C. for 20 min and incubated in RPMI-1640 medium containing 10% FCS for 2 hours at 37° C. with DCs (3×10^4/well) before addition of T cells (10^5/well in triplicate). DCs were infected as previously described De Libero et al. (2005) Immunity 22, 763-72 and IFN-γ release was monitored by ELISA.

Another experiment deals with T1, CD1b (Homo sapiens, UniProt P29016).
T1 construct: expressed in transfected cells; host or cells: THP-1 (human promyelocytic), BCMGS-Neo / -Hygro vectors, electroporation
T1 sequence (P61769 21-119): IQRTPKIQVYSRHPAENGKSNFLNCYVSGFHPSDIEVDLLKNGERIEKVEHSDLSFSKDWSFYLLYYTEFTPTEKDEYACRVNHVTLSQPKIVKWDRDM
T1 sequence (P29016 18-333): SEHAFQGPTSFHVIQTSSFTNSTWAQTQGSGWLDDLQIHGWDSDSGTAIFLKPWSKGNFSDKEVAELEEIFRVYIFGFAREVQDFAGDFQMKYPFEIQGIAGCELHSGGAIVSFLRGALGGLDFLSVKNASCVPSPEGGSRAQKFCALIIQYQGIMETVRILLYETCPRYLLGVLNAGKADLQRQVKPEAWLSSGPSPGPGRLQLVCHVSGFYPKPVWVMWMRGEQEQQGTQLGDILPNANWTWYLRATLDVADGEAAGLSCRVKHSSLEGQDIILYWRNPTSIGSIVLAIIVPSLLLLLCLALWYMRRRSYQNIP
The class given is cell-based. The settings on record: Z5B71 clone.

Experiment [2] concerns PBMCs with autologous DCs. The format is cell-based, human.

“(R)-1-O-mycoloyl-glycerol (3-O-mycoloyl-sn-glycerol) [s(R)-GroMM]”: in the experiment with Z5B71 T cell clone, the “stimulation of the Z5B71 T cell clone (IFN-γ release)” value (“stimulation of the Z5B71 T cell clone” below) is recorded as “stimulated the Z5B71 T cells more efficiently than the s(S)-GroMM”.

“(S)-1-O-mycoloyl-glycerol (1-O-mycoloyl-sn-glycerol) [s(S)-GroMM]”: in the experiment on Z5B71 T cell clone, the “stimulation of the Z5B71 T cell clone” value is “s(R)-GroMM stimulated the Z5B71 T cells more efficiently than the s(S)-GroMM”.

glycerol monomycolate [GroMM]: the “immunogenicity when APCs infected with living M. tuberculosis (IFN-γ release by Z5B71)” value in experiment [1] is listed as “highly immunogenic”. For the same substance, the “stimulation of the Z5B71 T cell clone” value in the experiment with Z5B71 T cell clone is “intermediate activity”. For the same substance, the “T cell response with APCs expressing CD1b and CD1e versus only CD1b (IFN-γ release)” value on CD1b (THP-1-CD1b vs THP-1-CD1b-CD1e) was “very similar T cell response”. Moreover, on CD1b (THP-1 transfected with CD1A, CD1B or CD1C), the “CD1 restriction: T cell stimulation with panel of CD1-transfected APCs (TNF-α release)” value is reported as “Only CD1b-expressing cells were able to stimulate T cells”. Also, on CD1b (mAbs at 10 μg/ml, 30 min before T cells), the “CD1 restriction: inhibition of clone reactivity by anti-CD1 mAbs (TNF-α release)” value was “only anti-CD1b mAbs were capable of inhibiting the reactivity of the clone”. Further, the “IFN-γ release after stimulation, mean average” value in experiment [2] turned out to be 117 pg/mL; in experiment [2] (10 μg/ml, 6 days) it was 73 pg/mL. The “effect of blocking antibodies against type 1 CD1 molecules on induced IFN-γ secretion” value in experiment [2] (PPD-positive healthy donors, CD1 blocking antibodies 10 μg/ml each) is given as “abrogated the reactivity”. Further, the “IFN-γ release after stimulation” value in experiment [2] (naïve, PPD-negative donors (n=10), 10 μg/ml, 6 days) is given as “no response”; in experiment [2] (tuberculosis patients (n=11), 10 μg/ml, 6 days), “no IFN-γ secretion above background levels”.
